Consider two molecules from US9765063B2, “Amido compounds as RORγt modulators and uses thereof” (New York University, priority 2011, dated 2017).

“Also recorded” adds a separate entry of the source. Where two headings read alike, the source gives them in different places. Bounds are passed on as bounds.

What all share (assay type): cell-based
Assay [1] has as its system RORγt. The experiment in a line: RORγt overexpression dependent IL17a production in human CD4 T cells (FIG. 3). Particulars: FIG. 3, FACS, 0.5 μM. As for the experimental part:
(§1) Briefly, CD3+ CD4+ CD45RA+ naive human T cells were isolated from peripheral blood derived from healthy donors. The naive T cells were cultured in XVIVO-20 (Lonza) medium for 7 days in the presence of IL2 and stimulatory CD3 and CD28 antibodies. Cells were infected with lentivirus encoding human RORα or RORγ and compound or DMSO was added on day 2. FACS plot analysis is shown after gating on GFP expressing (virus infected) cells.

In assay [2] the target is T1, RORγt (Mus musculus, UniProt P51450).
T1 construct: expressed in transfected cells; the other entry of the earlier key: GAL4 (P04386, Regulatory protein GAL4)
The assay is described as follows: RORγt S2 cell reporter assay (Gal4-RORγt fusion, UAS-luciferase). The source says: Methods: The Drosophila S2 cell line was originally purchased from Invitrogen and was maintained in Schneider's medium supplemented with 10% heat-inactivated bovine fetal calf serum and antibiotics (Invitrogen). […] The resulting chimeric gene was subcloned into the copper inducible pMT/V5-His A vector (available from Invitrogen).
Renilla luciferase construct under the polIII promoter was obtained from Dr. Dasgupta's laboratory (NYU medical center). In order to generate stable cell lines, cells were co-transfected with pMT-G4DBD-RORγt, pMT-G4DBD-RORα, pMT-G4DBD-DHR3, or pMT-G4DBDVP16 and pHygro plasmids (Invitrogen) and screened for resistant colonies in the presence of hygromycin (0.3 mg/mL). […] Using similar methods, stable clones with genomic integration of the luciferase reporters and other reporters were generated such as pMT-RORα_luc, pMT-DHR3_luc, or pMT-VP16_luc.
Methods: 600 G4DBD-RORγ/γt-luc reporter (#25) or G4DBD-VP16-luc reporter cells were distributed into each well of 1,536-well white bottom plates in 4 μl S2 cell culture volume containing hygromicin (300 μg/ml) and puromycin (2 μg/ml). […] After one-hour incubation, 1 of culture medium solution containing copper sulfate (to final 0.7 mM) and 10 μM RORγ/γt antagonists were added to each well. After 20-hour incubation at ambient temperature, 1.5 μl firefly luciferase detection mix was added and the luciferase activities were measured in 10 min. ViewLux luminometers were used for measuring luciferase signal.
A cell-based reporter assay was used to detect RORγt-mediated activity. This assay, called RORγt employed Drosophila Schneider cells that were stably transfected with two vectors: a gene expressing a fusion of the Gal4 DNA binding domain and RORγt transactivation domain under the control of the metallothionine promoter and a Photinus luciferase reporter regulated by the Gal4 binding site enhancer, UAS. […] Cells (600/well) were dispensed into white solid 1536-well plates (Greiner) using a solenoid-based dispenser. Following transfer of […] compound or DMSO vehicle by a pin tool, the plates were incubated 1 hr at ambient temperature, and 1 uL/well copper sulfate (700 uM final concentration) was added. The plates were centrifuged 15 s at 1000 RPM and incubated 20 hr at ambient temperature. After addition of 1.5 uL Photinus luciferase detection reagent, the plates were incubated 10 min at ambient temperature and then read by a ViewLux (Perkin Elmer) to detect luminescence. […] Efficacy is expressed as % of the maximal response of control inhibitor (Digoxin), set at 100%.

For assay [3], the system named is human Th1 cell differentiation. The experiment in a line: Human Th1 cell differentiation, IFNγ production (counter-screen, FIG. 2). The note with it: FIG. 2, FACS, 0.5 μM, naive CD4 T cells, IL12 and IL2. As for the experimental part: (§2) For Th1 differentiation, IL12 (10 ng/ml) and IL2 (100 U/ml) were added to naive CD4 T cell cultures instead of TGFβ and IL6.
In general terms: Counterscreens check selectivity or assay interference.

Assay [4] concerns human Th17 cell differentiation. The experiment in a line: Human Th17 cell differentiation (FACS, FIG. 2). Particulars: FIG. 2, FACS, 0.5 μM. The method, then: • 1) S2 cell reporter system: Identified hits from HTS are further screened and their specificity confirmed by testing against RORγ-luc, VP16-luc, RORα-luc, and DHR3-luc reporter S2 cell lines. Compounds either having no activity on VP16, RORα, and DHR3 or having ten times higher IC50 values on such reporters are selected for further tests. • 2) Cytokine induced mouse Th17 cells differentiation. Effects on mouse endogenous RORγt in a relevant physiological setting were determined by testing compounds in the Th17 cell differentiation assay. Compounds having RORγt inhibitory activity are predicted to suppress Th17 cell differentiation. Th1 or regulatory T cell differentiation was used as a counter-screen method to select specific compounds that only affect Th17 cell differentiation without having pleiotrophic effects on general T cell proliferation or cytokine production. • 3) ROR dependent Th17 cell differentiation. Compounds were further tested, by examining their effects on T cells expressing RORα or RORγ. […] Compounds affecting IL17a production or ROR regulatory pathways, however, are expected to inhibit both. • 4) Human Th17 cell differentiation. Compound effects on human RORγt will be tested by treating human cord blood CD4 T cells with select compounds to determine if such compounds alter differentiation into Th17 lineages.
as §2

The test system of assay [5] is mouse Th17 cell differentiation. The assay is described as follows: Th17 assay: mouse Th17 polarization (IL-17a producing cells, FACS). The note with it: for IC50: naive mouse CD4 T cells, TGFβ and IL6, compounds added Day 1, analyzed Day 4, read-out: Th 17 IC50. As for the experimental part:
(§3) Percentage of DMSO treated IL-17a producing cells was set at 100. Naive mouse CD4 T cells (CD25^−, CD62L^+, and CD44^low-int) were sorted and cultured with CD3/CD28 stimulatory antibodies in the presence of TGFβ (0.1 ng/ml) and IL6 (20 ng/ml). Compounds were added on Day 1 and cells were analyzed on Day 4. For intracellular cytokine staining, cells were incubated for 5 h with phorbol ester (50 ng/ml; Sigma), ionomycin (500 ng/ml; Sigma) and GolgiStop (BD). When needed, surfaces were stained by incubation for 15 min on ice with PECy7-conjugated CD4 (BD Biosciences). The Cytofix/Cytoperm buffer set (BD) was used for intracellular staining. Cells were fixed and made permeable for 30 min on ice and were stained for 30 min on ice in permeabilization buffer with Alexa647-conjugated anti-IL17a (eBioscience) and PE-conjugated anti-IFNg (eBioscience). An LSR II (BD Biosciences) and FlowJo software (Tree Star) were used for flow cytometry. RORg IC50 value acquired from the S2 cell reporter assay is listed for comparison.
as §3, with “With respect to the methodological details pertaining to FIG. 1, naive” for “Percentage of DMSO treated IL-17a producing cells was set at 100. Naive mouse”, “(BD).” for “(BD). When needed, surfaces were stained by incubation for 15 min on ice with PECy7-conjugated CD4 (BD Biosciences).”, “anti-IFNγ” for “anti-IFNg”, “cytometry.” for “cytometry. RORg IC50 value acquired from the S2 cell reporter assay is listed for comparison.”

Assay [6] has as its system RORα. The assay is described as follows: RORα overexpression dependent IL17a production in human CD4 T cells (FIG. 3). The note with it: FIG. 3, FACS, 0.5 μM; listed as NCGC00238427. As for the experimental part: as §1

T1 sequence (P51450 with tags, fused parts or gaps): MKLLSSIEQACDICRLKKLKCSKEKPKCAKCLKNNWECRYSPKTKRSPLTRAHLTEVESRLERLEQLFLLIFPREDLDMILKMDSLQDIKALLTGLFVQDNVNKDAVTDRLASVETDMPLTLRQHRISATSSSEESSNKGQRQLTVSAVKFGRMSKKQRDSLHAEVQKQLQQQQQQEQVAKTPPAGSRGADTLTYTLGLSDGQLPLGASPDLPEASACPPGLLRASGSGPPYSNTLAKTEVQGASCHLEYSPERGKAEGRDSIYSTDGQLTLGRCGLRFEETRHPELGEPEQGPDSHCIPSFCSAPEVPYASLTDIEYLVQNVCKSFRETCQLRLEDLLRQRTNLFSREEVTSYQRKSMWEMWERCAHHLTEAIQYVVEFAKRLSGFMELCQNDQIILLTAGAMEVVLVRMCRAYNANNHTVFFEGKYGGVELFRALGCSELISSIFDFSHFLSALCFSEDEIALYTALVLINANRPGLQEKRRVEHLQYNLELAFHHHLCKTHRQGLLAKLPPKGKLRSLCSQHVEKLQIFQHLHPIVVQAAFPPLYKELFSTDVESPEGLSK

On to `COc1cc(O)c(C(CC(=O)N2CC(C)CC(C)C2)c2cccc(C(=O)O)c2)c(OC)c1` (stereo not shown) [Compound 101, 3-(3-(3,5-Dimethylpiperidin-1-yl)-1-(2-hydroxy-4,6-dimethoxyphenyl)-3-oxopropyl)benzoic acid], for which, in assay [1], the “RORγt overexpression dependent IL17a production in human CD4 T cells” value is reported as “neither of which exhibits the ability to inhibit RORγt dependent human Th17 cell differentiation”. Also, the Emax in assay [2] (Table 1, % of the maximal response of control inhibitor (Digoxin), set at 100%, read-out: Efficacy (%)) was determined as 88.7%. Further, the IC50 in assay [2] (Table 1, Drosophila S2 cells, luciferase reporter, read-out: IC50) was 1 to 10 µM; in assay [2] (Table 2, from the S2 cell reporter assay, listed for comparison, read-out: S2 cell RORg IC50), 1 to 10 µM; in assay [5] it was more than 20 µM. Moreover, in assay [3], the “Th1 cell differentiation, as measured by IFNγ production” value is given as “neither of which exhibits the ability to suppress human Th17 or Th1 cell differentiation”. The “human Th17 cell differentiation” value in assay [4] is given as “neither of which exhibits the ability to suppress human Th17 or Th1 cell differentiation”.

For the molecule `COc1cc(O)c(C(CC(=O)N2CC(C)CC(C)C2)c2ccc3c(c2)OCO3)c(OC)c1` (stereo not shown) [RC1, reference compound], the “RORα overexpression dependent IL17a production in human CD4 T cells” value in assay [6] was “unaffected”. The “RORγt overexpression dependent IL17a production in human CD4 T cells” value in assay [1] (listed as NCGC00238427) is “selectively inhibit RORγt dependent; also recorded: selectively inhibits RORγt overexpression dependent IL17a production”. The “Th1 cell differentiation, as measured by IFNγ production” value in assay [3] (listed as NCGC00238427) is listed as “does not inhibit Th1 cell differentiation”. For the same molecule, the “human Th17 cell differentiation” value in assay [4] (listed as NCGC00238427) is listed as “selectively suppress human Th17; also recorded: selectively suppresses human Th17 cell differentiation”. The “mouse Th17 cell differentiation, as measured by IL17a production” value in assay [5] (FIG. 1, FACS, at the indicated concentrations) is reported as “suppress mouse Th17 cell differentiation”. For the same molecule, in assay [5], the IC50 lay within 1 to 10 µM.

One may read the IC50 as the point on the concentration scale where inhibition reaches its midpoint.
